Read-outs that look alike come from different tables or passages of the source.
Key:
TYK2 JH2 = target: T1, TYK2 JH2 (Homo sapiens, UniProt P29597); test: TYK2 JH2 binding assay (KINOMEscan KdELECT competitive binding); settings: TYK2 JH2 domain
T1 construct: purchased DiscoverX (KINOMEscan KdELECT service); host or cells: E. coli BL21-derived (T7 phage display) or HEK-293
How it was run: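 Kd values come from qPCR measurement of kinase retained on an immobilized-ligand resin after 1 h room-temperature competition with compound in an 11-point, 3-fold series.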

[1] = system: JAK1/TYK2 pSTAT5 (Tyr694/699) in THP-1 cell line; test: IFNa-stimulated JAK1/TYK2 pSTAT5 (Tyr694/699) inhibition cellular assay, AlphaLISA; assay type: cell-based; settings: Homo sapiens, THP-1 cells, AlphaLISA (Assay B)
How it was run: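 pSTAT5 (Tyr694/699) in lysates quantified by AlphaLISA (615 nm) after 30 min IFNa stimulation (100 ng/mL stock) of THP-1 cells. The cells, 2e4 per well in HBSS, had first been exposed 1 h at 37° C. to eight 6-fold compound dilutions, 10000 down to 0.04 nM final. IC50 fitted by 4PL regression, bottom 0, Hill slope −1.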

[2] = DiscoverX KINOMEscan KdELECT (Assay A), read-out: Biochemical TYK2_DiscoverX_JH2_BND_Kd
[3] = IFNa-stimulated, read-out: Cellular_THP1_IFNa-pSTATS_TYK2
[4] = KINOMEscan KdELECT (Assay A), read-out: Biochemical TYK2_JH2_Kd
[5] = IFNa-stimulated, read-out: Cellular THP1_IFNa-pSTATS_IC50
[6] = KINOMEscan KdELECT (Assay A), read-out: Biochemical TYK2_DiscoverX_JH2_BND_Kd
[7] = IFNa-stimulated pSTAT5 (Tyr694/699), read-out: Cellular_THP1_IFNa-pSTATS_TYK2

T1 sequence (P29597 589-875 limits assumed): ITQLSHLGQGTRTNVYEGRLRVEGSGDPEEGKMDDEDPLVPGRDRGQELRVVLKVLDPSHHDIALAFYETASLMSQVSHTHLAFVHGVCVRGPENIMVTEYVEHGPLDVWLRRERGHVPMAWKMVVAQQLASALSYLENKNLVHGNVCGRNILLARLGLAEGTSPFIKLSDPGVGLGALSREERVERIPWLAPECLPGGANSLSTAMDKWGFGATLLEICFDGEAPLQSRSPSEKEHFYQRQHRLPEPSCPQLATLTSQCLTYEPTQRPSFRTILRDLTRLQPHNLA

SMILES | Kd (TYK2 JH2; [2]) [µM] | IC50 [1, 3] [µM] | Kd (TYK2 JH2; [6]) [µM] | other results
CNc1ncc(Br)c2cc(NC(=O)C3CC3)nnc12 [Example 177, N-(5-bromo-8-(methylamino)pyrido[3,4-c]pyridazin-3-yl)cyclopropanecarboxamide] |  |  |  | Kd (TYK2 JH2; [4]): ≤ 0.1 µM; IC50 [1, 5]: > 0.5 µM
CNc1ncc(-c2ccn(Cc3noc(C)n3)n2)c2cc(NC(=O)C3CC3)ncc12 [Example 152, N-(5-(1-((5-methyl-1,2,4-oxadiazol-3-yl)methyl)-1H-pyrazol-3-yl)-8-(methylamino)-2,7-naphthyridin-3-yl)cyclopropanecarboxamide] |  |  |  | Kd (TYK2 JH2; [4]): ≤ 0.1 µM; IC50 [1, 5]: > 0.5 µM
CNc1ncc(-c2cccc(COCCOC)c2)c2cc(NC(=O)C3CC3)ncc12 [Example 172, N-(5-(3-((2-methoxyethoxy)methyl)phenyl)-8-(methylamino)-2,7-naphthyridin-3-yl)cyclopropanecarboxamide] |  |  |  | Kd (TYK2 JH2; [4]): ≤ 0.1 µM; IC50 [1, 5]: > 0.5 µM
CNc1ncc(C#Cc2ccc3nc(C4CC4)n(C)c3c2)c2cc(NC(=O)C3CC3)ncc12 [Example 740, N-(5-((2-cyclopropyl-1-methyl-1H-benzo[d]imidazol-6-yl)ethynyl)-8-(methylamino)-2,7-naphthyridin-3-yl)cyclopropanecarboxamide] |  | ≤ 0.5 | ≤ 0.1 | 
CNc1ncc(-c2cccc(-c3ncn(C)n3)c2)c2cc(NC(=O)C3CC3)ncc12 [Example 53, N-(5-(3-(1-methyl-1H-1,2,4-triazol-3-yl)phenyl)-8-(methylamino)-2,7-naphthyridin-3-yl)cyclopropanecarboxamide] |  |  |  | Kd (TYK2 JH2; [4]): ≤ 0.1 µM; IC50 [1, 5]: > 0.5 µM
CNc1ncc(C#Cc2cn(C)cn2)c2cc(NC(=O)C3CC3)ncc12 [Example 990, N-[8-(methylamino)-5-[2-(1-methylimidazol-4-yl)ethynyl]-2,7-naphthyridin-3-yl]cyclopropanecarboxamide] |  | ≤ 0.5 | ≤ 0.1 | 
CNc1ncc(-c2nc3ccc(N4CCO[C@@H](C)C4)cn3n2)c2cc(NC(=O)[C@H]3C[C@H]3C(F)(F)F)ncc12 (single isomer, unassigned) [Example 541] | ≤ 0.1 | ≤ 0.5 |  | 
CNc1ncc(-c2nc3ccc(N4CCOC(C(C)(C)F)C4)cn3n2)c2cc(NC(=O)C3CC3)ncc12 (single isomer, unassigned) [Example 1049] |  |  | ≤ 0.1 | IC50 [1, 7]: ≤ 0.5 µM
CNc1ncc(C2=CCC(c3ncnn3C)C2)c2cc(NC(=O)C3CC3)ncc12 (centres unmarked) [Example 835, N-(5-(4-(1-methyl-1H-1,2,4-triazol-5-yl)cyclopent-1-en-1-yl)-8-(methylamino)-2,7-naphthyridin-3-yl)cyclopropanecarboxamide] |  | > 0.5 | ≤ 0.1 | 
CCNc1ncc(-c2nc3ccc(N4CCO[C@@H](C)C4)cn3n2)c2cc(NC(=O)C3CC3)ncc12 [Example 515, (S)-N-(8-(ethylamino)-5-(6-(2-methylmorpholino)-[1,2,4]triazolo[1,5-a]pyridin-2-yl)-2,7-naphthyridin-3-yl)cyclopropanecarboxamide] | ≤ 0.1 | ≤ 0.5 |  | 
CNc1ncc(C#Cc2ccc(OC[C@@H](C)OC)cc2)c2cc(NC(=O)C3CC3)ncc12 [Example 703, (R)—N-(5-((4-(2-methoxypropoxy)phenyl)ethynyl)-8-(methylamino)-2,7-naphthyridin-3-yl)cyclopropanecarboxamide] |  | ≤ 0.5 | ≤ 0.1 | 
CNc1ncc(C#Cc2ccc(OC[C@H](C)OC)cc2)c2cc(NC(=O)C3CC3)ncc12 [Example 704, (S)—N-(5-((4-(2-methoxypropoxy)phenyl)ethynyl)-8-(methylamino)-2,7-naphthyridin-3-yl)cyclopropanecarboxamide] |  | ≤ 0.5 | ≤ 0.1 | 
CNc1ncc(C#Cc2ccc(OC(F)(F)F)cn2)c2cc(NC(=O)C3CC3)ncc12 [Example 644, N-(8-(methylamino)-5-((5-(trifluoromethoxy)pyridin-2-yl)ethynyl)-2,7-naphthyridin-3-yl)cyclopropanecarboxamide] |  | ≤ 0.5 | ≤ 0.1 | 
CNc1ncc(/C=C/c2ccc(OCCC#N)cc2)c2cc(NC(=O)C3CC3)ncc12 [Example 794, (E)-N-(5-(4-(2-cyanoethoxy)styryl)-8-(methylamino)-2,7-naphthyridin-3-yl)cyclopropanecarboxamide] |  | ≤ 0.5 | ≤ 0.1 | 
CNc1ncc(-c2cccc(-c3ncn(C)n3)c2OC)c2cc(NC(=O)C3CC3)ncc12 [Example 49, N-(5-(2-methoxy-3-(1-methyl-1H-1,2,4-triazol-3-yl)phenyl)-8-(methylamino)-2,7-naphthyridin-3-yl)cyclopropanecarboxamide] |  |  |  | Kd (TYK2 JH2; [4]): ≤ 0.1 µM; IC50 [1, 5]: > 0.5 µM
CNc1ncc(-c2nc3ccc(N4CCO[C@H](C)C4)cn3n2)c2cc(NC(=O)[C@@H]3C[C@@H]3C)ncc12 [Example 546, (1R,2S)-2-methyl 1N-(8-(methylamino)-5-(6-((R)-2-methylmorpholino)-[1,2,4]triazolo[1,5-a]pyridin-2-yl)-2,7-naphthyridin-3-yl)cyclopropane-1-carboxamide] | ≤ 0.1 | ≤ 0.5 |  | 
CNc1ncc(Cc2ccc(OC)cc2)c2cc(NC(=O)C3CC3)ncc12 [Example 34, N-(5-(4-methoxybenzyl)-8-(methylamino)-2,7-naphthyridin-3-yl)cyclopropanecarboxamide] |  |  |  | Kd (TYK2 JH2; [4]): 0.1 to 1 µM; IC50 [1, 5]: > 0.5 µM

Continued, in another order:

Kd (TYK2 JH2; [2]) [µM] | IC50 [1, 3] [µM] | Kd (TYK2 JH2; [6]) [µM] | SMILES | other results
≤ 0.1 | ≤ 0.5 |  | CNc1ncc(-c2nc3cnccc3o2)c2cc(NC(=O)C3CC3)ncc12 [Example 356, N-(8-(methylamino)-5-(oxazolo[4,5-c]pyridin-2-yl)-2,7-naphthyridin-3-yl)cyclopropanecarboxamide] | 
≤ 0.1 | ≤ 0.5 |  | CNc1ncc(-c2nc3cc(N4CCC4COC)ccc3o2)c2cc(NC(=O)C3CC3)ncc12 (centres unmarked) [Example 278, N-(5-(5-(2-(methoxymethyl)azetidin-1-yl)benzo[d]oxazol-2-y1)-8-(methylamino)-2,7-naphthyridin-3-yl)cyclopropanecarboxamide] | 
≤ 0.1 | ≤ 0.5 |  | CNc1ncc(-c2nc3cc(OC4CC4)ccc3o2)c2cc(NC(=O)C3CC3)ncc12 [Example 223, N-(5-(5-cyclopropoxybenzo[d]oxazol-2-yl)-8-(methylamino)-2,7-naphthyridin-3-yl)cyclopropanecarboxamide] | 
 |  | ≤ 0.1 | [2H]C([2H])(C)Nc1ncc(-c2nc3cc(OC)ccc3o2)c2cc(NC(=O)C3CC3)ncc12 [Example 1102, N-(8-((ethyl-1,l-rig)amino)-5-(5-methoxybenzo[d]oxazol-2-yl)-2,7-naphthyridin-3-yl)cyclopropanecarboxamide] | IC50 [1, 7]: ≤ 0.5 µM
≤ 0.1 | ≤ 0.5 |  | [2H]C([2H])([2H])Nc1ncc(-c2nc3cc(N4CCOCC4)ccc3o2)c2cc(NC(=O)C3CC3)ncc12 [Example 364, N-(8-((methyl-d3)amino)-5-(5-morpholinobenzo[d]oxazol-2-yl)-2,7-naphthyridin-3-yl)cyclopropanecarboxamide] | 
≤ 0.1 | ≤ 0.5 |  | CNc1ncc(-c2nc3ccc(OC)cc3o2)c2cc(NC(=O)C3CC3)ncc12 [Example 203, N-(5-(6-methoxybenzo[d]oxazol-2-yl)-8-(methylamino)-2,7-naphthyridin-3-yl)cyclopropanecarboxamide] | 
 |  | ≤ 0.1 | CCC(=O)Nc1ccc2oc(-c3cnc(NC)c4cnc(NC(=O)C5CC5)cc34)nc2c1 [Example 1092, N-(8-(methylamino)-5-(5-propionamidobenzo[d]oxazol-2-yl)-2,7-naphthyridin-3-yl)cyclopropanecarboxamide] | IC50 [1, 7]: ≤ 0.5 µM
≤ 0.1 | ≤ 0.5 |  | CNc1ncc(-c2nc3cc(Cl)ccc3o2)c2cc(NC(=O)C3CC3)ncc12 [Example 212, N-(5-(5-chlorobenzo[d]oxazol-2-yl)-8-(methylamino)-2,7-naphthyridin-3-yl)cyclopropanecarboxamide] | 
≤ 0.1 | ≤ 0.5 |  | CNc1ncc(-c2nc3cc(N4C[C@@H]5C[C@H]4CO5)ccc3o2)c2cc(NC(=O)C3CC3)ncc12 [Example 298, N-(5-(5-((15,4S)-2-oxa-5-azabicyclo[2.2.1]heptan-5-yl)benzo[d]oxazol-2-y1)-8-(methylamino)-2,7-naphthyridin-3-yl)cyclopropanecarboxamide] | 
 | ≤ 0.5 | ≤ 0.1 | CCc1nc2ccc(C#Cc3cnc(NC)c4cnc(NC(=O)C5CC5)cc34)cc2n1C [Example 811, N-(5-((2-ethyl-1-methyl-1H-benzo[d]imidazol-6-yl)ethynyl)-8-(methylamino)-2,7-naphthyridin-3-yl)cyclopropanecarboxamide] | 
≤ 0.1 | ≤ 0.5 |  | CNc1ncc(-c2nc3c(Br)cccc3o2)c2cc(NC(=O)C3CC3)ncc12 [Example 272, N-(5-(4-bromobenzo[d]oxazol-2-yl)-8-(methylamino)-2,7-naphthyridin-3-yl)cyclopropanecarboxamide] | 
